Test results as given in patent US20240245633A1, “ROR Gamma Agonists as Enhancers of Protective Immunity” (University of Florida Research Foundation, Incorporated, priority 2015, published 2024).
Marks after values point to notes of the source that are not given here.

Molecular target: T1, RORγt LBD (Homo sapiens, UniProt P51449)
T1 construct: 5 μL of a 10 μM RORγt LBD solution (Apo or in complex with 10-excess compound)
T1 sequence (P51449 269-508 limits assumed): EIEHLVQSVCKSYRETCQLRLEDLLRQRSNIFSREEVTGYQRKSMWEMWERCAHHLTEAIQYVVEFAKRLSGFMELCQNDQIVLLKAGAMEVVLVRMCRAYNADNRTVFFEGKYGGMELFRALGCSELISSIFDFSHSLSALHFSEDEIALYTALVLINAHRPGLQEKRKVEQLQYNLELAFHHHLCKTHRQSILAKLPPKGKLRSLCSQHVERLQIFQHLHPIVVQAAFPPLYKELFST
Assay: Differential HDX-MS of RORγt LBD ± compounds
Format: binding
Excerpt: While the mechanism of action of RORγt agonists on regulation of the immune checkpoint receptor PD-1 is unclear, a correlation between RORγt and PD-1 expression has been observed in PD-1 knockout mice Z Regardless, to gain insights into the structural mechanism for agonist activity we examined the impact of putative agonist ligands on the conformational dynamics of RORγt. To achieve this, we utilized differential hydrogen/deuterium exchange (HDX) mass spectrometry.
HDX-MS. Solution-phase amide HDX was performed with a fully automated system as described previously with minor modifications^30,31. For differential HDX experiments, 5 μL of a 10 μM RORγt LBD solution (Apo or in complex with 10-excess compound) was diluted to 25 μL with D20-containing HDX buffer, and incubated at 4° C. for; 10 s, 30s, 60s, 900s, and 3,600s, Following on-exchange, unwanted forward or back exchange is minimized and the protein is denatured by dilution to 50 μL with 0.1% TFA in 3M urea (held at 4° C., pH 2.5). Samples are then passed across an immobilized pepsin column (prepared in house) at 50 μL min−1 (0.1% TFA, 15° C.) and the resulting peptides are trapped onto a Ce trap cartridge (Thermo Fisher, Hypersil Gold). Peptides were then gradient eluted (4% CH3CN to 40% CH3CN, 0,3% formic acid over 5 minutes, 4° C.) across a 1 mm×50 mm Cia HPLC column (Hypersil Gold, Thermo Fisher) and electrosprayed directly into a high resolution orbitrap mass spectrometer (Exactive, Thermo Fisher). Percent deuterium exchange values for peptide isotopic envelopes at each time point were calculated and processed using HDX Workbench^32 and overlaid onto RORγt crystal structures using pyMOL (DeLano Scientific). HDX data is presented as an average of three individual replicates across […] time points (10s, 60s, 300s, 900s, and 3600s).

CC(C)=CCC[C@@H](C)[C@H]1CC[C@H]2[C@@H]3CC=C4C[C@@H](O)CC[C@]4(C)[C@H]3CC[C@]12C [desmosterol]
Differential HDX kinetics, peptide TEIEHLVQSVC (268-278, charge 2, H1): −1(4)*
Differential HDX kinetics, peptide TEIEHLVQSVCXS (268-280, charge 3, H1): 0(5)*
Differential HDX kinetics, peptide TEIEHLVQSVCKSYRETCQ (268-286, charge 2, H1): −5(3)
Differential HDX kinetics, peptide LRLEDL (287-292, charge 2, H2): −5(4)*
Differential HDX kinetics, peptide RLEDLL (288-293, charge 2, H2): −6(3)
Differential HDX kinetics, peptide RLEDLLRQRSNIFSRE (288-303, charge 4, H2/H3): −10(4)
Differential HDX kinetics, peptide WERCAHHLTEAIQ (317-329, charge 2, H4): −5(1)*
Differential HDX kinetics, peptide WERCAHHTEAIQY (317-330, charge 3, H4): −4(1)*
Differential HDX kinetics, peptide WEGAKRLSGF (331-341, charge 2, H4/H5): −1(1)*
Differential HDX kinetics, peptide AKRLSGF (335-341, charge 2, H4/H5): −1(2)*
Differential HDX kinetics, peptide CQNDQVL (345-352, charge 1, H5/H6): 0(1)*
Differential HDX kinetics, peptide VRMCRAYNAENRTVF (363-377, charge 3, H6/B1): −7(2)
Differential HDX kinetics, peptide CRAYCAONRTVF (366-377, charge 2, B1): −5(2)
Differential HDX kinetics, peptide FEGKYGGMEL (373-387, charge 2, B2/H7): −6(3)
Differential HDX kinetics, peptide FRALGCSE (386-398, charge 2, H7/H8): −4(3)*
Differential HDX kinetics, peptide LISSIFDFSHSLSAL (395-410, charge 2, H8): −4(2)*
Differential HDX kinetics, peptide ISSIFD (397-402, charge 1, H8): −4(2)*
Differential HDX kinetics, peptide ISSIFDFSHSL (397-407, charge 2, H8): −4(2)*
Differential HDX kinetics, peptide ISSIFDSHSLSAL (397-410, charge 2, H8): −4(2)*
Differential HDX kinetics, peptide DFSHSLSAL (402-410, charge 1, H8): −5(3)
Differential HDX kinetics, peptide FSHSLSAL (403-410, charge 2, H8): −4(3)*
Differential HDX kinetics, peptide HFSEDEIAL (411-419, charge 2, H9): −1(1)*
Differential HDX kinetics, peptide LAFHHHLCKTHRQSL (448-463, charge 4, H10): −3(2)*
Differential HDX kinetics, peptide AKLPFXGKLRSLCSQ (464-478, charge 3, H11): −12(4)
Differential HDX kinetics, peptide HVERLQFQHLHPIVVQ (479-495, charge 2, H11): −12(4)
Differential HDX kinetics, peptide QFQHLHPIVVQ (484-495, charge 2, H11): −6(4)*
Differential HDX kinetics, peptide AAFPPLYXEL (495-505, charge 2, H12): −2(4)*
Differential HDX kinetics, peptide AAFPPLYZELF (496-506, charge 2, H12): −3(3)*
HDX kinetics in helix 12 (H12) (RORγt LBD ± compound): No statistically significant change in HDX kinetics
Differential HDX kinetics, peptide TEIEHLVQ (charge 2, H1, percent deuterium exchange difference): −2(5)*
